In brackets after ≈: the same amount, converted by molar mass. Like-named read-outs stand apart in the source and are kept apart here.
Legend:
[1] = Solubility of parent compounds and prodrugs in phosphate buffer; format: physicochemical; conditions: aqueous buffer, thermodynamic from solid; parent compound, phosphate buffer, 25° C., more than 4 weeks, pH 7.0
Method: Parent compounds: About 5 mg of parent compounds (biologically active forms of prodrugs) were added to 950 μL of phosphate buffer, and mixed vigorously for 1 hour at 25° C. Then, these samples were stored at 25° C. for more than 4 weeks and filtered to remove undissolved parent compounds. Next, these solutions were diluted with 50% aqueous acetonitrile solution. The resulting test solutions were assayed by HPLC. Prodrugs: About 30 mg of prodrugs were added to 120 μL of phosphate buffer, and mixed vigorously for 1 hour at 25° C. After shaking, pH of these solutions were adjusted at pH 7.0 by 1 mol/L NaOH solution. Then, the total volume were adjusted to 280 μL with purified water. Next, these solutions were stored at 25° C. for more than 4 weeks and filtered to remove undissolved compounds. These solutions were diluted with 50% aqueous acetonitrile solution. The resulting test solutions were assayed by HPLC.

[2] = Conversion efficiency / PK profile after IV dose in rats (Compounds No. 5 and No. 7); format: in vivo; conditions: Rat, plasma, parent compound IV 1 mg/kg; read-out: Parent compound AUCinf
Method: Determination of conversion efficiency of Compound No. 5 and Compound No. 7 was conducted in rats. Animals were divided in two groups with two animals in each group. One group received an IV dose of prodrug and the other group received an IV dose of parent compound. Serial blood sampling was carried out at 0.08, 0.25, 0.5, 1, 2, 4, 7, and 24 h post dose from both of the animal groups. Blood samples were centrifuged to harvest plasma. Plasma samples of prodrug administered animals were simultaneously analyzed for both analytes (prodrug and parent compound) using LC-MS/MS. AUC of plasma concentrations versus time profiles were calculated in WinNonlin software and percentage conversion efficiency was determined using the formula: Percentage conversion efficiency=(AUCiv of parent compound from prodrug administered samples)/(AUCiv of parent compound from parent compound administered samples)/(molecular weight of parent compound)×(molecular weight of prodrug)×100. PK profile of Compound No. 5 and Compound No. 7 in rats are depicted in Table 7.

[3] = Solubility in Japanese Pharmacopeia First Fluid (JP1) and Second Fluid (JP2); format: physicochemical; conditions: thermodynamic from solid, room temperature
Method: Method of Testing Solubility in Water and Neutral Buffer A 10 mmol/L solution of the test compound was prepared in DMSO and dispensed 100 μL of 10 mmol/L DMSO stock solutions into labeled glass tubes in duplicate, one for Japanese Pharmacopeia First Fluid (JP1) and second for Japanese Pharmacopeia Second Fluid (JP2). After evaporation of DMSO from each tube, 500 μL of JP1 and JP2 fluid were added in each tube, respectively. These tubes were sonicated for 1 minute and placed on shaker for 30 minutes with an interval of 30 seconds at every 5 minute. Tubes were placed in dark at room temperature for 1 hour and solution was filtered through membrane filter. The filtrate was diluted 2-fold and 10-fold. The resulting test solutions was analyzed and quantified against the standards using UPLC (standard preparation-10 mmol/L solution in DMSO is serially diluted with 50% aqueous acetonitrile solution to prepare 2 solutions; 100 μmol/L standard solution and 5 μmol/L standard solutions).

[4] = Conversion efficiency / PK profile after IV dose in rats (Compounds No. 1 and No. 2); format: in vivo; conditions: 15.3 mg/kg; Rat, plasma, prodrug IV 15.300 mg/kg, analyte prodrug; read-out: Compound No. 1 AUCinf
Method: Method of Testing Conversion Efficiency Determination of conversion efficiency of Compound No. 1 and Compound No. 2 was conducted in rodents (mice and rats) and non-rodents (monkeys and dogs). Animals were divided in two groups with two animals in each group. One group received an intravenous (IV) dose of prodrug and the other group received an IV dose of parent compound. The dose of prodrug was taken as molar equivalent dose of parent compound. Serial blood sampling was carried out at 0.083, 0.33, 1, 2, 4, 8 and 24 h post IV dose from both the animal groups. Blood samples were centrifuged to harvest plasma. Plasma samples were stored at −80° C. until analysis. Plasma samples of prodrug administered animals were simultaneously analyzed for both analytes (prodrug and parent compound) using LC-MS/MS. Area under the curve (AUC) of plasma concentrations versus time profiles were calculated in WinNonlin software and percentage conversion efficiency was determined using the formula: Percentage conversion efficiency=(AUCiv of parent compound (from prodrug administered samples)×100/(AUCiv of parent compound (from parent compound administered samples). PK profile of Compounds No. 1 and No. 2 in rats, dogs and monkeys are depicted in Table 5 and 6, respectively (also shown in FIGS. 1 and 2).

MRSA 562 = test: Mouse lung infection model by MRSA 562 (neutropenic Swiss mice); format: in vivo, Staphylococcus aureus
Method: a) Method for Testing Therapeutic Effect of Compounds Using Mouse Lung Infection Model by MRSA 562
Mice were rendered neutropenic with two intra-peritoneal injections (IP) of cyclophosphamide on day −4 and day −1 prior to infection at the dose rate of 150 mg and 100 mg per kg body weight. Overnight grown MRSA 562 was diluted 1:10 in fresh Brain Heart Infusion broth and mixed 1:1 with 5% hog mucin. The bacterial suspension (3.16×10^6/mouce/50 μL) was then inoculated to each pre-anaesthetized mice (xylazine 5 mg/kg and ketamine 100 mg/kg mixture) into the nares of Swiss mice (4 to 6-week-old, Vivo Biotech Limited, Hyderabad, India), n=5 mice per group). The test compound was administered to the mice once, twice and four times at an interval of 24, 12 and 6 hr, respectively. The number of bacteria in the lungs was determined in the non-treated group immediately before initial administration of the test compound (pre-control) and in the non-treated group (post-control) and the test compound-administered group on the next day of administration of the test compound and infection. A change in the number of bacteria in the lungs was used as an index of therapeutic effect.

MRSA 02541 [5] = test: Neutropenic mouse thigh infection model, MRSA 02541; format: in vivo, Staphylococcus aureus
Method: (§1) (b) Method for Testing Therapeutic Effect of Compounds Against MRSA 02541 and VRE IV258 21076 Using Neutropenic Mouse Thigh Infection Model
(§2) Swiss Webster mice of 4 to 6-week-old were used for this experiments (Vivo Biotech Limited, Hyderabad, India, n=5 mice per group). Mice were rendered neutropenic as described above. Overnight grown culture of MRSA 02541 on Mueller-Hinton broth (MHB) was adjusted to 0.5 Mac Farland. The suspension was then diluted 1:100 in fresh MHB and 100 μl was injected intra-muscularly in the right thigh muscles of the mice (n=5/group). In case of VRE IV 258-21076 culture was mixed with 10% hog mucin in 1:1 proportion. The bacterial inocula were confirmed by quantitative culture analyses and found to be 3×10^6 CFU for MRSA and 2×10^6 for VRE IV258-21076 per mL. Treatment started 2 h post infection. The test compound was administered to the mice one to eight times at an interval of 3 to 24 hr. The number of bacteria in the thigh muscle was counted for the non-treated group immediately before initial administration of the test compound (pre-control), for the non-treated group (post-control) and for the test compound-administered group on the next day of administration of the test compound and infection. A change in the number of bacteria in the thigh was used as an index of therapeutic effect.

VRE IV258 21076 = test: Neutropenic mouse thigh infection model, VRE IV258 21076; format: in vivo, Enterococcus
Method: as §1, §2

MRSA 02541 [6] = test: Neutropenic Sprague Dawley rat thigh infection model, MRSA 02541; format: in vivo, Staphylococcus aureus; conditions: for log10 kill (number of bacteria in the thigh): 25 mg/kg, IV qid
Method: c) Method for Testing Therapeutic Effect of Compounds Against MRSA 02541 Using Neutropenic Sprague Dawley Rat Thigh Infection Model
Sprague Dawley rats of 4 to 6-week-old were used for this experiments (Vivo Biotech Limited, Hyderabad, India, n=4 rats per group). Rats were rendered neutropenic by intraperitoneal injection of cyclophosphamide. Overnight grown culture of MRSA 02541 in MHB was adjusted to 0.5 Mac Farland. The suspension was then diluted 1:10 in fresh MHB and 200 μl was injected intra-muscularly in the right thigh muscles of the rat. The bacterial inocula were confirmed by quantitative culture analyses and found to be 6×10^6 CFU per rat thigh muscle. Treatment started 2 h post infection. The test compound was administered to the rat four times at an interval of 6 hr. The number of bacteria in the thigh muscle was counted for the non-treated group immediately before initial administration of the test compound (2 h pre-control), for the non-treated group (26 h post-control) and for the test compound-administered group on the next day of administration of the test compound and infection. A change in the number of bacteria in the thigh was used as an index of therapeutic effect.

[7] = system: Clostridium difficile 2009155, a NAP1/027 strain; test: Hamster CDI model; format: in vivo; conditions: 0.3 mg/kg/day for 5 days
Method: d) Method for Testing Therapeutic Effect of Compounds in Hamster CDI Model
The in vivo efficacy of Compound No. 1 was evaluated in a hamster CDI model caused by Clostridium difficile 2009155, a NAP1/027 strain. The Syrian hamsters (7-9 weeks old, National Centre for Laboratory Animal Sciences, National Institute Nutrition, Hyderabad, India.) were acclimatized at least 7 days prior the experiment. Hamsters primed with a single subcutaneous injection of clindamycin (30 mg/kg) 1 day prior to infection. Hamsters were infected by oral gavage with 1 mL of spore suspension (2-3×10^5) prepared in PBS. The test compounds were prepared using the 0.25 w/v % Methyl Cellulose Solution for oral administration and 10% HP ß-CD for SC administration and treatment was started 6 h post infection at an interval of 24 h for 5 days. Hamsters were administered a dose of 0.03-0.3 mg/kg/day for 5 days. The death and survival time of the hamsters treated with test compound administered group and non-treated group (vehicle-control) were recorded once daily for 35 days and were compared. A change in the survival time was used as an index of therapeutic effect.

[8] = Solubility of parent compounds and prodrugs in phosphate buffer; format: physicochemical; conditions: aqueous buffer, thermodynamic from solid; prodrug, phosphate buffer adjusted with NaOH, 25° C., more than 4 weeks, pH 7.2
animal infection models = conditions: compound of WO 2009/084614; cited from earlier work

SMILES: CCc1[nH]c(C(=O)N[C@@H]2CCN(c3nnc([C@H](O)CO)s3)C[C@@H]2OC)nc1Cl [Compound C, 4-chloro-N-[(3S,4R)-1-{5-[(1R)-1,2-dihydroxyethyl]-1,3,4-thiadiazol-2-yl}-3-methoxypiperidin-4-yl]-5-ethyl-1H-imidazole-2-carboxamide]
- solubility [1]: 2440 µg/mL (≈ 5.67 mM)
- AUC(0-inf) [2]: 990 ng·h/mL

SMILES: CCc1[nH]c(C(=O)N[C@@H]2CCN(c3nnc(C(C)O)s3)C[C@@H]2OC)nc1Cl (stereo partly drawn) [Compound D, 4-chloro-5-ethyl-N-{(3S,4R)-1-[5-(1-hydroxyethyl)-1,3,4-thiadiazol-2-yl]-3-methoxypiperidin-4-yl}-1H-imidazole-2-carboxamide]
- solubility [1]: 752 µg/mL (≈ 1.81 mM)
- AUC(0-inf) [2]: 3110 ng·h/mL

SMILES: CCc1c(Cl)nc(C(=O)N[C@@H]2CCN(c3nnc(C(C)(C)O)s3)C[C@@H]2OC)n1COP(=O)(O)O [Compound No. 1, [4-Chloro-5-ethyl-2-({(3S,4R)-1-[5-(2-hydroxypropan-2-yl)-1,3,4-thiadiazol-2-yl]-3-methoxypiperidin-4-yl}carbamoyl)-1H-imidazol-1-yl]methyl dihydrogen phosphate]
- solubility at 30 min ([3]; pH 1.2, simulated gastric fluid, Japanese Pharmacopeia First Fluid (JP1), read-out: Solubility JP1): > 1280 µg/mL
- solubility at 30 min ([3]; pH 6.8, aqueous buffer, Japanese Pharmacopeia Second Fluid (JP2), read-out: Solubility JP2): > 1320 µg/mL
- AUC(0-inf) [4]: 270 ng·h/mL
- log10 kill (number of bacteria in the lungs) (MRSA 562; 6.25 mg/kg/dose, SC q6h, compared to 1 hour pre-control): 1.33 log10
- log10 kill (number of bacteria in the lungs) (MRSA 562; 6.25 mg/kg/dose, SC q6h, compared to 25 hour post control): 2.52 log10
- log10 kill (number of bacteria in the lungs) (MRSA 562; 12.5 mg/kg/dose, SC, q6h, compared to 1 hour pre-control): 1.76 log10
- log10 kill (number of bacteria in the lungs) (MRSA 562; 12.5 mg/kg/dose, SC, q6h, compared to 25 hour post control): 2.95 log10
- Therapeutic effect (change in the number of bacteria in the lungs) (MRSA 562; mouse lung infection, MRSA 562): exhibited the therapeutic effect
- Cidal potential (number of bacteria in the thigh) (MRSA 02541 [5]; 200 mg/kg/dose q24h, 100 mg/kg/dose q24h, and 50 mg/kg/dose q24h and their fractions irrespective of dosing schedule): cidal potential
- Therapeutic effect (change in the number of bacteria in the thigh) (MRSA 02541 [5]; neutropenic mouse thigh, MRSA 02541): exhibited the therapeutic effect
- Cidal potential (number of bacteria in the thigh) (VRE IV258 21076; fractionated doses 50 mg/kg/dose q12h, 25 mg/kg/dose q6h, 12.5 mg/kg/dose q3h): cidal potential
- Therapeutic effect (change in the number of bacteria in the thigh) (VRE IV258 21076; neutropenic mouse thigh, VRE IV258 21076): exhibited the therapeutic effect
- log10 kill (number of bacteria in the thigh) (MRSA 02541 [6]; compared to 2 hours pre-control): 1 log10
- log10 kill (number of bacteria in the thigh) (MRSA 02541 [6]; compared to 26 hours post control): 2.99 log10
- Therapeutic effect (change in the number of bacteria in the thigh) (MRSA 02541 [6]; neutropenic rat thigh, MRSA 02541): exhibited the therapeutic effect
- Survival on day 35 [7]: 100%

SMILES: CCc1c(Cl)nc(C(=O)N[C@@H]2CCN(c3nnc([C@@H](O)CO)s3)C[C@@H]2OC)n1COP(=O)(O)O [Compound No. 9, [4-Chloro-2-({(3S,4R)-1-[5-(1,2-dihydroxyethyl)-1,3,4-thiadiazol-2-yl]-3-methoxypiperidin-4-yl}carbamoyl)-5-ethyl-1H-imidazol-1-yl]methyl dihydrogen phosphate]
- solubility [8]: 102 mg/mL

SMILES: CCO[C@H]1CN(c2nncs2)CC[C@H]1NC(=O)c1nc(Cl)c(CC)[nH]1 [Compound No. 150]
- Efficacy in animal infection models (animal infection models): not being efficacious

Reference: patent US10752647B2, “N-phosphonoxymethyl prodrugs of hydroxyalkyl thiadiazole derivatives” (DAIICHI SANKYO COMPANY, LIMITED, priority 2017, dated 2020)
